Here are results for 5 compounds from US9499484B2, “Indole, indoline derivatives, compositions comprising them and uses thereof” (priority 2012, dated 2016).

Assay [1] has as its system primary neurones in culture. The settings on record: Chyan et al., J. Biol. Chem. 1999; cited from earlier work.
Assay [2] deals with conversion of MCI to AD. The following applies: chronic treatment; cited from earlier work.
The test system of assay [3] is cytokine levels in spleen and brain. The experiment in a line: Anti-inflammatory activity in LPS-injected mice, cytokine protein levels. The class given is in vivo, mouse. The settings on record: 8 h after ip LPS 10 mg/kg, two doses. How it is done: G. Evaluation of Anti-Inflammatory Activity in Mice
For measurement of cytokine protein levels, mice were treated with saline or LPS as described above and sacrificed 4 h or 8 h after drug administration, the spleen and rapidly brain removed. The brain was separated into fore, mid and hind sections (minus cerebellum) and frozen in liquid nitrogen and stored at −80° C. until use. […] The supernatant was rapidly frozen in liquid nitrogen and stored until use at −80° C. Cytokines were detected by using Elisa kits (Biolegend) and protein determination performed with Bradford reagent (Bio-RAD, 500-0006).

The test system of assay [4] is DNBS-induced colon inflammation. Kind of assay: DNBS-induced colitis in rats (model of Crohn's disease). The class given is in vivo, rat. The following applies: rectal 1 mg/kg (2.5 μmoles/kg) prior to and after DNBS. On the procedure: H. Measurement of Effect of Compounds of the Invention in a Model of Crohn's Disease in Rats
Inflammation in the colon was induced in male rats of the Sabra strain (250-300 g) by intra-colonic administration of 1 mL of dinitrobenzensulfonic acid (DNBS) (35 mg/mL in ethanol 25% v/v) under isoflurane anaesthesia. The novel drugs (827B or 680D) or saline was given rectally 1 h prior to DNBS at a dose of 1 mg/kg (2.5 μmoles/kg), and then twice daily at the same dose 12, 24, 36, 48, 60 and 72 h later. A group of control rats received saline rectally instead of DNBS and were pre-treated with saline instead of drug. The rats were anaesthetized by ip injection of a mixture of xylazine 3 mg, ketamine 85 mg, 1 mL/kg. The colon was exposed through a longitudinal abdominal incision. The area of ulceration was estimated. Segments of 10 cm of the colon were removed, cut open and rinsed with ice-cold saline. After cleaning with cold saline (0.9%) the wet weight of the colon was measured. Pieces of colon were analysed for activity of myeloperoxidase (MPO), a marker of neutrophil granulocyte infiltration into the inflamed colon tissue. One unit of MPO activity was defined as the amount of enzyme present that produced a change in absorbance of […] at 25° C. Results were quantified as U/g protein.

Assay [5] deals with NO, RAW 264.7 cells. Kind of assay: NO reduction in LPS-stimulated RAW 264.7 macrophages. The following applies: Mus musculus, RAW264.7, 24 h, read-out: Reduction in NO levels, RAW Macrophages % peak reduction. The class given is cell-based, mouse.
Assay [6] has as its system NO, BV2 mouse microglial cells. Kind of assay: NO reduction in LPS-stimulated BV2 microglia. The format is cell-based. The following applies: for Reduction in NO levels by at >20%, BV2 Microglia range: concentration range, None = no reduction up till 100 nM. On the procedure:
The BV2 mouse microglial cells were created by infecting primary mouse microglia with v-raf/v-myc oncogen-carrying retrovirus and donated by Dr. Sigal Fleisher—Berkovich (Ben-Gurion University of the Negev). The cells were cultured in RPMI 1640 containing 0.4 mM L-Glutamine, 10% FCS, 100 units/ml penicillin, 100 μg/ml streptomycin and maintained in a humidified incubator at 37° C. with 5% CO2. For measurement of the effect of compounds on the release of NO the cells were seeded in a density of 80,000 cells/ml and confluence of about 60%, and incubated with test compounds (in the absence of FCS) for […] All the medium was removed and fresh medium containing FCS and LPS (10 μg/ml) added and the cells maintained at 37° C. for 24 h. The release of NO into the medium was determined by measurement of nitrite levels using Griess reagent reaction. For measurement of protein levels of cytokines cells were seeded in a density of 80,000 and incubated with test compounds (in the absence of FCS) and then with LPS as described above. The medium was centrifuged and supernatants collected after 6 h for TNF-α (Biolegend) and after 20 h for IL-6 (Biolegend).

Assay [7] has as its system ChE (AChE, BuChE) in plasma, muscle, spleen, brain. The following applies: for ChE inhibition in plasma, muscle, and spleen: after ip and or oral administration in mice.
Procedure: E. Acetylcholinesterase (AChE) and Butylcholinesterase (BuChE) Inhibition Ex Vivo
Compounds of the invention or saline were administrated by intraperitoneal (ip) injection or gavage to groups of 6-7 male ICR or Balb C mice (5-6 weeks of age). The mice were sacrificed 15, 30, 60 or 120 min after drug administration and the brain (minus cerebellum), spleen, and muscle were rapidly removed, weighed and put on ice. Blood was also collected in heparinised tubes, centrifuged at 14000 rpm at room temperature for 4 mM to provide plasma. Phosphate buffer pH 7 was added to each tissue to produce concentrations of 1 mg/mL for brain and spleen and 8 mg/mL for muscle. The tissues were homogenised in cold phosphate buffer pH 7 containing 0.1% Triton and centrifuged at 14000 rpm. Aliquots of plasma and the supernatant of all tissues were incubated with AcTh or BuTh and DTNB in phosphate buffer pH 7 and the rate of development of the yellow colour was measured as described above. Enzyme activity was measured for each time and drug concentration and percent inhibition of the AChE or BuChE activity was calculated by comparison with that of control mice injected with saline. Results are represented as p moles acetylthiocholine or butythiocholine hydrolysed/min/gm tissue.
In assay [8] the target is T1, BuChE (UniProt P81908).
T1 construct: 120 min incubation; BuChE IC50
The format is biochemical, human or equine serum. The settings on record: read-out: IC50 BuChE 120 min; Table 3; 120 min incubation. The gist of the method: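 Enzyme incubated at 37° C with 6-10 compound concentrations, sampled at 15, 30, 60 and 120 min; residual activity read kinetically on a microplate reader. Percent inhibition relative to no-drug enzyme; BuChE run likewise with 0.075M butylthiocholine iodide as substrate.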

The test system of assay [9] is TNF-α, BV2 mouse microglial cells. The experiment in a line: TNF-α reduction in LPS-stimulated BV2 microglia. The format is cell-based. The following applies: for Reduction in TNF-α levels, BV2 Microglia range: concentration range, None = no reduction up till 100 nM.
Assay [10] is described as follows: Radical scavenging, glucose oxidase/luminol luminescence. The format is biochemical. The settings on record: concentration reducing luminescence/radical by 50%; mean ± SD, three independent experiments. The gist of the method:
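Glucose oxidase, luminol, sodium selenite and Co2+ in HBSS generate H2O2-driven oxidant luminescence. Compounds were added at several concentrations. The value is the concentration reducing luminescence by 50%.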

A short description of assay [11]: Radical scavenging, Sin1. The format is biochemical. The following applies: mean ± SD, three independent experiments.
Assay [12] relates to TNF-α, RAW 264.7 cells. Kind of assay: TNF-α reduction in LPS-stimulated RAW 264.7 macrophages. The format is cell-based, mouse. The settings on record: for Emax: Mus musculus, RAW264.7, 6 h, read-out: Reduction in TNF-α levels, RAW Macrophages % peak reduction.
The nature of assay [13]: Fall in body temperature in rats. The following applies: ip injection of two doses. The format is in vivo, rat. How it is done:
F. Temperature Measurements in Rats
Monitoring body temperature at different times after drug administration enables one to assess in vivo both the extent of drug effect and its duration in the same group of rats. Test compounds or saline were administrated by ip injection or by gavage to female Wistar rats aged 3-4 months. Body temperature was measured rectally by means of a thermocouple probe, before and every 30 min after drug administration until this returned to pre-injection values. The change in body temperature induced by the drug was computed for each dose at each time point in comparison with the temperature prior to drug injection.

Where a name gives a salt, the structure may show the parent alone.

On to `O=C(O)CCc1c[nH]c2ccccc12` [IPA, 3-indole-propionic acid], for which, in [1], the “protection of primary neurones against oxidative damage induced by beta amyloid” value is on record as “protects primary neurones in culture against oxidative damage induced by beta amyloid”.
With `COc1cc2c(cc1OC)C(=O)C(CC1CCN(Cc3ccccc3)CC1)C2` (stereo not drawn) [donepezil], the “proportion of MCI patients converting to AD” value in [2] is “did not reduce the proportion converting to AD”.
In the case of `CCN(C)C(=O)Oc1ccc2c(c1)NCC2CCC(=O)OC.CS(=O)(=O)O` (stereo not drawn) [AN-680D, Methyl 3-(6-((ethyl(methyl)carbamoyl)oxy)indolin-3-yl)propanoate methanesulfonate], in assay [3], the “reduction in cytokine levels in cerebral cortex (FIG. 6B)” value is reported as “reduction” and the “reduction in cytokine levels in spleen (FIG. 6A)” value is “reduction”. Further, in [4], the “reduced MPO activity” value is 80%, the reduced colon weight stood at 30% and the “reduced the area of colonic ulceration” value is 95%. Further, the Emax in assay [5] stood at 47.8 ± 1.8%. For the same compound, in [6], the “Reduction in NO levels, BV2 Microglia % peak reduction” value was found to be 37.1 ± 5.3% and the “Reduction in NO levels by at >20%, BV2 Microglia range” value was 10^−3-100 nM. Besides, the “inhibition of ChE in mouse brain” value in assay [7] (100 μmoles/kg) is reported as “no significant inhibition”.
In general, IC50 refers to the concentration that gives 50% inhibition. Take `CCN(C)C(=O)Oc1cccc2c1C(CCN)CN2` (stereo not drawn) [AN-890, 3-(2-Aminoethyl)indolin-4-yl ethyl(methyl)carbamate dihydrochloride]: the results for the IC50 in [8], in [10] and in assay [11] were 200 nM, 70 ± 10 nM and 2130 ± 180 nM, respectively. Besides, in assay [9], the “Reduction in TNF-α levels, BV2 Microglia range” value was “None”. Further, the Emax in assay [5] worked out at 54.6 ± 2.3%; in assay [12], 36.6 ± 4.1%. Also, the “inhibition of the level of TNF-α induced in RAW cells by LPS (FIG. 3)” value in [12] is on record as “inhibition”. Further, the “Reduction in NO levels by at >20%, BV2 Microglia range” value in assay [6] is given as “None”. In [7], the “ChE inhibition in plasma, muscle, and spleen” value is recorded as “inhibited ChE”. In assay [7] (mice, 1 mg/kg), the “ChE inhibition in skeletal muscle” value was “little or no effect”. For the same compound, in assay [7] (mice, 1 mg/kg, ip and oral, 30 to 120 min), the “ChE inhibition in plasma and spleen” value is “inhibited ChE in plasma and spleen equally well after ip and oral administration”.
With `CCN(C)C(=O)Oc1cccc2c1CCN2` [AN-854, Indolin-4-yl ethyl(methyl)carbamate hydrochloride], the IC50 is 700 nM in assay [8], 1380 ± 100 nM in assay [10] and 570 ± 10 nM in assay [11]. Further, in [9], the “Reduction in TNF-α levels, BV2 Microglia % peak reduction” value is recorded as 8.4 ± 1.7%. Further, the “Reduction in TNF-α levels, BV2 Microglia range” value in assay [9] is 100 nM. Further, the Emax in assay [5] was found to be 45.2 ± 1.4%; in [12], 41.1 ± 3.8%. Moreover, the “fall in body temperature in rats (FIG. 4)” value in assay [13] is listed as “fall in body temperature”. The “Reduction in NO levels by at >20%, BV2 Microglia range” value in assay [6] is on record as “None”. Moreover, the “inhibited ChE in the mouse brain” value in assay [7] (50 μmoles/kg) was found to be 30%. Moreover, in assay [7], the “ChE inhibition in plasma, muscle, and spleen” value is “inhibited ChE”.
